Assays:
[1] = test system: human duodenum monolayer culture; assay: Sustained inhibition of apical acid secretion in human organoid monolayer cell cultures (duodenum); type: cell-based; settings: Homo sapiens
Protocol: Basal media (BM) consisted of advanced DMEM/F12 containing 10 mM HEPES Invitrogen, 15630-080), 1:100 Glutamax (Invitrogen, 35050-061), and 1:100 penicillin/streptomycin (Invitrogen, 15140-122). Supplemented basal media (SBM) contained 1:100 N2 (Invitrogen, 17502-048), 1:50 B27 (Invitrogen, 12587-010), 1 mM N-acetylcysteine (Sigma, A9165), and 10 nM [Leu15]-gastrin I (Sigma, G9145). Growth factors used included 50 ng per mL mouse EGF (Peprotech, 315-09), 100 ng per mL mouse noggin (Peprotech, 250-38), 500 ng per mL human R-spondin 1 (R&D, 4645-RS), 100 ng per mL mouse Wnt-3a (R&D, 1324-WN), 20 μM. Y-27632 (Tocris, 1254), 10 mM nicotinamide (Sigma, N0636), 500 nM A83-01 (Tocris, 2939), 10 μM SB202190 (Tocris, 1264). Transwells were 0.4 μm pore polyester membrane 24-well Transwell inserts (Corning). Cultures were incubated at 37° C. in 5% CO2.
Each human ileum monolayer culture well was washed twice with fresh SBM on the apical side on day 6 before compound dosing. All compound stocks were 10 mM dissolved in DMSO. Each compound stock was individually mixed with fresh SBM to reach final compound concentration 1 μM and dosed only on the apical side of the monolayer (total volume 200 μl). DMSO at the equivalent concentration was used as the vehicle control. Duplicate wells were dosed for each compound. On day 8, apical media pH was measured by pH electrode, to determine the ability of example compounds to produce sustained inhibition of NHE3 activity in a human monolayer culture system by preventing proton secretion into the apical compartment.
Human duodenum organoids were cultured in WENRNAS (Wnt, EGF, noggin, R-spondin1, Nicotinamide, A83-01, SB202190) and typically grown for 7-12 days before being used to plate monolayer cultures. On day 0, organoid cultures embedded in Matrigel were treated with TrypLE Express to break organoids into small pieces and/or single cells. The cells were resuspended to 0.5×10^6 cells/mL in SBM containing WENRAY (Wnt, EGF, noggin, R-spondin1, A83-01, Y-27632). Following this step, 200 μL of cell suspension was plated into the apical side of a 24-well Transwell (100,000 cells/well) and 600 μL of SBM with WENRAY was added to the basolateral side. Duodenum cells were differentiated with ENA (EGF, noggin, A83-01) on day 3. The color of apical compartment turns from pink or orange to yellow due to the increase in NHE3 expression after differentiation.

NHE3 = target: T1, NHE3 (Homo sapiens, UniProt P48764); assay: Cell-based assay of NHE-3 activity (pre-incubation inhibition), human; settings: human Preincubation; for pIC50: 0-30 μM test compound
T1 construct: expressed in transfected cells
T1 sequence (P48764 26-834): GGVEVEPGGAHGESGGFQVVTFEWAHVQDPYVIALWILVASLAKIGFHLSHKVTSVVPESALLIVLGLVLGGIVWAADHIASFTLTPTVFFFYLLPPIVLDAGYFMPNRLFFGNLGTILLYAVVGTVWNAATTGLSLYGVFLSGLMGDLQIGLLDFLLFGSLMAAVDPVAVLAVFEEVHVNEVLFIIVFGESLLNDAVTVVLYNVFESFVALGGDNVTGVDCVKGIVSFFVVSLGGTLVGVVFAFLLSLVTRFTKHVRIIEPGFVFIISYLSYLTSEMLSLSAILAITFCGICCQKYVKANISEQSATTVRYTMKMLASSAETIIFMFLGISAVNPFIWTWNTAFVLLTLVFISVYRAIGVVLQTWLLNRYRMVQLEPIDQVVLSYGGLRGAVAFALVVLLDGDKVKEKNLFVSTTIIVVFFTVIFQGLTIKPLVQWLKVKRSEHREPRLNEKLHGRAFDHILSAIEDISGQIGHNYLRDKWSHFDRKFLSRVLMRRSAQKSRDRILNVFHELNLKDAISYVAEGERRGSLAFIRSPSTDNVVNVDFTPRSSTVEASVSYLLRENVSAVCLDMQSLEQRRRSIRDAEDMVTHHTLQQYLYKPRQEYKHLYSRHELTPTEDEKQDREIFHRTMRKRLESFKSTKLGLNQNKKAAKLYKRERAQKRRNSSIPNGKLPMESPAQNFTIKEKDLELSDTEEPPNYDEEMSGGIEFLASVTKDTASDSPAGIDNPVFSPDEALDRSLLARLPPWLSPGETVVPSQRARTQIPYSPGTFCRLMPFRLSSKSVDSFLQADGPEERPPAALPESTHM
T1 sequence (Q99653 2-195 partner limits assumed): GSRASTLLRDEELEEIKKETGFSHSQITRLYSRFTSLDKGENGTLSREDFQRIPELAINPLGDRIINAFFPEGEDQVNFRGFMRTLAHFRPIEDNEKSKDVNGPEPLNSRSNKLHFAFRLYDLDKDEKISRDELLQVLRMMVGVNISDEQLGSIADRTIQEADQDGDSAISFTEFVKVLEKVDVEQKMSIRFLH
How it was run: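 Activity read as initial rate of BCECF fluorescence ratio change per minute (ex 439/505, em 538 nm) following NH4Cl prepulse acid loading. Compound (0–30 μM) present during 10 min Na+-free acidification at room temperature; cells were PS120 fibroblasts stably co-expressing human NHE3 and NHERF2.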

Structure (SMILES)	inhibition at 1 µM [1] [%]	% inhibition (NHE3)	pIC50 (NHE3)
Cc1cc(S(=O)(=O)NCCOCCOCCNC(=O)NCCCCNC(=O)NCCOCCOCCNS(=O)(=O)c2ccc(O[C@H]3c4cc(Cl)cc(C)c4C[C@@H]3N(C)C)c(C)c2)ccc1O[C@H]1c2cc(Cl)cc(C)c2C[C@@H]1N(C)C [Example 17, 3-[2-(2-[2-[(4-[[(1S,2S)-6-Chloro-2-(dimethylamino)-4-methyl-2,3-dihydro-1H-inden-1-yl]oxy]-3-methylbenzene)sulfonamido]ethoxy]ethoxy)ethyl]-1-[4-([[2-(2-[2-[(4-[[(1S,2S)-6-chloro-2-(dimethylamino)-4-methyl-2,3-dihydro-1H-inden-1-yl]oxy]-3-methylbenzene)sulfonamido]ethoxy]ethoxy)ethyl]carbamoyl]amino)butyl]urea]	50 to 70	C (>70%)	C (NHE3 pIC50 > 7)
CN(C)[C@H]1Cc2c(Cl)cc(Cl)cc2[C@@H]1Oc1ccc(S(=O)(=O)NCCOCCOCCNC(=O)NCCCCNC(=O)NCCOCCOCCNS(=O)(=O)c2ccc(O[C@H]3c4cc(Cl)cc(Cl)c4C[C@@H]3N(C)C)c(F)c2)cc1F [Example 23, 3-[2-(2-[2-[(4-[[(1S,2S)-4,6-Dichloro-2-(dimethylamino)-2,3-dihydro-1H-inden-1-yl]oxy]-3-fluorobenzene)sulfonamido]ethoxy]ethoxy)ethyl]-1-[4-([[2-(2-[2-[(4-[[(1S,2S)-4,6-dichloro-2-(dimethylamino)-2,3-dihydro-1H-inden-1-yl]oxy]-3-fluorobenzene)sulfonamido]ethoxy]ethoxy)ethyl]carbamoyl]amino)butyl]urea; bis(trifluoroacetic acid)]	50 to 70	C (>70%)	C (NHE3 pIC50 > 7)
Cc1cc(Cl)cc2c1C[C@H](N(C)C)[C@H]2Oc1ccc(S(=O)(=O)NCCOCCOCCNC(=O)NCCCCNC(=O)NCCOCCOCCNS(=O)(=O)c2ccc(O[C@H]3c4cc(Cl)cc(C)c4C[C@@H]3N(C)C)c(F)c2)cc1F [Example 24, 3-[2-(2-[2-[(4-[[(1S,2S)-6-Chloro-2-(dimethylamino)-4-methyl-2,3-dihydro-1H-inden-1-yl]oxy]-3-fluorobenzene)sulfonamido]ethoxy]ethoxy)ethyl]-1-[4-([[2-(2-[2-[(4-[[(1S,2S)-6-chloro-2-(dimethylamino)-4-methyl-2,3-dihydro-1H-inden-1-yl]oxy]-3-fluorobenzene)sulfonamido]ethoxy]ethoxy)ethyl]carbamoyl]amino)butyl]urea]	50 to 70	C (>70%)	–
Cc1cc(S(=O)(=O)NCCOCCOCCNC(=O)NCCCCNC(=O)NCCOCCOCCNS(=O)(=O)c2ccc(O[C@H]3c4cc(Cl)cc(Cl)c4C[C@@H]3N3CCC[C@@H](N(C)C)C3)c(C)c2)ccc1O[C@H]1c2cc(Cl)cc(Cl)c2C[C@@H]1N1CCC[C@@H](N(C)C)C1 [Example 26, 3-[2-(2-[2-[(4-[[(1S,2S)-4,6-Dichloro-2-[(3R)-3-(dimethylamino)piperidin-1-yl]-2,3-dihydro-1H-inden-1-yl]oxy]-3-methylbenzene)sulfonamido]ethoxy]ethoxy)ethyl]-1-[4-([[2-(2-[2-[4-[[(1S,2S)-4,6-dichloro-2-[(3R)-3-(dimethylamino)piperidin-1-yl]-2,3-dihydro-1H-inden-1-yl]oxy]-3-methylbenzenesulfonamido]ethoxy]ethoxy)ethyl]carbamoyl]amino)butyl]urea; bis(trifluoroacetic acid)]	50 to 70	C (>70%)	–
Cc1cc(Cl)cc2c1C[C@H](N1CCC[C@@H](N(C)C)C1)[C@H]2Oc1ccc(S(=O)(=O)NCCOCCOCCNC(=O)NCCCCNC(=O)NCCOCCOCCNS(=O)(=O)c2ccc(O[C@H]3c4cc(Cl)cc(C)c4C[C@@H]3N3CCC[C@@H](N(C)C)C3)cc2)cc1 [Example 28, 3-[2-(2-[2-[(4-[[(1S,2S)-6-Chloro-2-[(3R)-3-(dimethylamino)piperidin-1-yl]-4-methyl-2,3-dihydro-1H-inden-1-yl]oxy]benzene)sulfonamido]ethoxy]ethoxy)ethyl]-1-[4-([[2-(2-[2-[(4-[[(1S,2S)-6-chloro-2-[(3R)-3-(dimethylamino)piperidin-1-yl]-4-methyl-2,3-dihydro-1H-inden-1-yl]oxy]benzene)sulfonamido]ethoxy]ethoxy)ethyl]carbamoyl]amino)butyl]urea; bis(trifluoroacetic acid)]	50 to 70	C (>70%)	C (NHE3 pIC50 > 7)
Cc1cc(S(=O)(=O)NCCOCCOCCNC(=O)NCCCCNC(=O)NCCOCCOCCNS(=O)(=O)c2ccc(O[C@H]3c4cc(Cl)cc(C)c4C[C@@H]3N3CCC[C@@H](N(C)C)C3)c(C)c2)ccc1O[C@H]1c2cc(Cl)cc(C)c2C[C@@H]1N1CCC[C@@H](N(C)C)C1 [Example 29]	> 70	C (>70%)	C (NHE3 pIC50 > 7)
O=C(NCCCCNC(=O)NCCOCCOCCNS(=O)(=O)c1ccc(O[C@H]2c3cc(Cl)cc(Cl)c3C[C@@H]2N2CCNCC2)cc1)NCCOCCOCCNS(=O)(=O)c1ccc(O[C@H]2c3cc(Cl)cc(Cl)c3C[C@@H]2N2CCNCC2)cc1 [Example 31, 3-[2-(2-[2-[(4-[[(1S,2S)-4,6-Dichloro-2-(piperazin-1-yl)-2,3-dihydro-1H-inden-1-yl]oxy]benzene)sulfonamido]ethoxy]ethoxy)ethyl]-1-[4-([[2-(2-[2-[(4-[[(1S,2S)-4,6-dichloro-2-(piperazin-1-yl)-2,3-dihydro-1H-inden-1-yl]oxy]benzene)sulfonamido]ethoxy]ethoxy)ethyl]carbamoyl]amino)butyl]urea; bis(trifluoroacetic acid)]	> 70	C (>70%)	–
Cc1cc(S(=O)(=O)NCCOCCOCCNC(=O)NCCCCNC(=O)NCCOCCOCCNS(=O)(=O)c2ccc(O[C@H]3c4cc(Cl)cc(Cl)c4C[C@@H]3N3CCNCC3)c(C)c2)ccc1O[C@H]1c2cc(Cl)cc(Cl)c2C[C@@H]1N1CCNCC1 [Example 32, 3-[2-(2-[2-[(4-[[(1S,2S)-4,6-Dichloro-2-(piperazin-1-yl)-2,3-dihydro-1H-inden-1-yl]oxy]-3-methylbenzene)sulfonamido]ethoxy]ethoxy)ethyl]-1-[4-([[2-(2-[2-[(4-[[(1S,2S)-4,6-dichloro-2-(piperazin-1-yl)-2,3-dihydro-1H-inden-1-yl]oxy]-3-methylbenzene)sulfonamido]ethoxy]ethoxy)ethyl]carbamoyl]amino)butyl]urea; bis(trifluoroacetic acid)]	> 70	C (>70%)	C (NHE3 pIC50 > 7)
